pIC50: −log10 of the molar value.
What was measured:
human Gal-1 (hGal-1) = test: Competitive binding assay: biotinylated hGal-1 binding to microplate-adsorbed asialofetuin (ASF); conditions: Activity on hGal-1; binding of biotinylated hGal-1 to ASF-coated plates; mean values
Summary of the method: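 Biotinylated hGal-1 (300–1000 ng/mL; optionally a cysteine-free all-serine variant) incubated 3 h at 4 °C with compound on asialofetuin-coated plates, then streptavidin-peroxidase 1 h at 4 °C. ABTS readout at OD 410 nm after 30–45 min; IC50 given as mean of several runs.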

human Gal-3 (hGal-3) = human Gal-3 (hGal-3) (Homo sapiens (Human), UniProt P17931); test: Competitive binding assay: biotinylated hGal-3 binding to microplate-adsorbed asialofetuin (ASF); conditions: Activity on hGal-3; binding of biotinylated hGal-3 to ASF-coated plates; mean values
Summary of the method: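 Serially diluted compounds competed with biotinylated human Gal-3 for binding to plate-adsorbed asialofetuin over 3 h at 4 °C. Bound Gal-3 was detected with streptavidin-peroxidase (80 ng/mL, 1 h, 4 °C) and ABTS substrate. IC50 values are means of several measurements.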

Sequence of human Gal-3 (hGal-3) (P17931 whole entry): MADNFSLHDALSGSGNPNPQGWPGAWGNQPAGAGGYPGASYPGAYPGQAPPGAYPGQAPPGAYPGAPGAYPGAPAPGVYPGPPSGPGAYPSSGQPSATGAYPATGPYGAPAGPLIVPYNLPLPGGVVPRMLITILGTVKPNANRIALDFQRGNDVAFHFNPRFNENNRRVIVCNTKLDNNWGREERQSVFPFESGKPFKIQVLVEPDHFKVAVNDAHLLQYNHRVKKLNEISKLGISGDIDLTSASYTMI
Sequence of human Gal-1 (hGal-1) (P09382 2-135 limits assumed): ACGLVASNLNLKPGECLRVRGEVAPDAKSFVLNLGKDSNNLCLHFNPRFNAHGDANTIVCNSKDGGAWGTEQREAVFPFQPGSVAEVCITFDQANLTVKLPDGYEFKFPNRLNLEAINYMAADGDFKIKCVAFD

SMILES	pIC50 (human Gal-1 (hGal-1))	pIC50 (human Gal-3 (hGal-3))
CO[C@@H]1[C@@H](n2cc(-c3cc(F)c(F)c(F)c3)nn2)[C@@H](O)[C@@H](CO)O[C@H]1C(=O)N(c1ccc(C(F)(F)F)c(Cl)c1)[C@H]1CCCC[C@@H]1O [Example 91, (2R,3R,4S,5R,6R)-N-(3-chloro-4-(trifluoromethyl)phenyl)-5-hydroxy-N-((1S,2S)-2-hydroxycyclohexyl)-6-(hydroxymethyl)-3-methoxy-4-(4-(3,4,5-trifluorophenyl)-1H-1,2,3-triazol-1-yl)tetrahydro-2H-pyran-2-carboxamide]	5.81	6.83
CO[C@@H]1[C@@H](n2cc(-c3cc(F)c(F)c(F)c3)nn2)[C@@H](O)[C@@H](CO)O[C@H]1C(=O)N(c1ccc(F)c(Br)c1)[C@H]1CCCC[C@@H]1O [Example 92, (2R,3R,4S,5R,6R)-N-(3-bromo-4-fluorophenyl)-5-hydroxy-N-((1S,2S)-2-hydroxycyclohexyl)-6-(hydroxymethyl)-3-methoxy-4-(4-(3,4,5-trifluorophenyl)-1H-1,2,3-triazol-1-yl)tetrahydro-2H-pyran-2-carboxamide]	6.47	7.74
CO[C@@H]1[C@@H](n2cc(-c3cc(F)c(F)c(F)c3)nn2)[C@@H](O)[C@@H](CO)O[C@H]1C(=O)N(c1ccc2ncsc2c1)[C@H]1CCCC[C@@H]1O [Example 93, (2R,3R,4S,5R,6R)-N-(benzo[d]thiazol-6-yl)-5-hydroxy-N-((1S,2S)-2-hydroxycyclohexyl)-6-(hydroxymethyl)-3-methoxy-4-(4-(3,4,5-trifluorophenyl)-1H-1,2,3-triazol-1-yl)tetrahydro-2H-pyran-2-carboxamide]	6.79	7.70
CO[C@@H]1[C@@H](n2cc(-c3cc(F)c(F)c(F)c3)nn2)[C@@H](O)[C@@H](CO)O[C@H]1C(=O)N(c1ccc2nc(C)sc2c1)[C@H]1CCCC[C@@H]1O [Example 94, (2R,3R,4S,5R,6R)-5-hydroxy-N-((1S,2S)-2-hydroxycyclohexyl)-6-(hydroxymethyl)-3-methoxy-N-(2-methylbenzo[d]thiazol-6-yl)-4-(4-(3,4,5-trifluorophenyl)-1H-1,2,3-triazol-1-yl)tetrahydro-2H-pyran-2-carboxamide]	6.60	7.51
CO[C@@H]1[C@@H](n2cc(-c3cc(F)c(F)c(F)c3)nn2)[C@@H](O)[C@@H](CO)O[C@H]1C(=O)N(c1ccccc1)[C@H]1CCCC[C@@H]1O [Example 100, (2R,3R,4S,5R,6R)-5-hydroxy-N-((1S,2S)-2-hydroxycyclohexyl)-6-(hydroxymethyl)-3-methoxy-N-phenyl-4-(4-(3,4,5-trifluorophenyl)-1H-1,2,3-triazol-1-yl)tetrahydro-2H-pyran-2-carboxamide]	4.73	7.14
CO[C@@H]1[C@@H](n2cc(-c3cc(F)c(F)c(F)c3)nn2)[C@@H](O)[C@@H](CO)O[C@H]1C(=O)N(c1ccc2ccsc2c1)[C@H]1CCCC[C@@H]1O [Example 102, (2R,3R,4S,5R,6R)-N-(benzo[b]thiophen-6-yl)-5-hydroxy-N-((1S,2S)-2-hydroxycyclohexyl)-6-(hydroxymethyl)-3-methoxy-4-(4-(3,4,5-trifluorophenyl)-1H-1,2,3-triazol-1-yl)tetrahydro-2H-pyran-2-carboxamide]	5.91	7.37
CO[C@@H]1[C@@H](n2cc(-c3cc(F)c(F)c(F)c3)nn2)[C@@H](O)[C@@H](CO)O[C@H]1C(=O)N(c1cccc(Br)c1)[C@H]1CCCC[C@@H]1O [Example 103, (2R,3R,4S,5R,6R)-N-(3-bromophenyl)-5-hydroxy-N-((1S,2S)-2-hydroxycyclohexyl)-6-(hydroxymethyl)-3-methoxy-4-(4-(3,4,5-trifluorophenyl)-1H-1,2,3-triazol-1-yl)tetrahydro-2H-pyran-2-carboxamide]	6.62	7.60
CO[C@@H]1[C@@H](n2cc(-c3cc(F)c(F)c(F)c3)nn2)[C@@H](O)[C@@H](CO)O[C@H]1C(=O)N(c1cc(Cl)ccc1F)[C@H]1CCCC[C@@H]1O [Example 105, (2R,3R,4S,5R,6R)-N-(5-chloro-2-fluorophenyl)-5-hydroxy-N-((1S,2S)-2-hydroxycyclohexyl)-6-(hydroxymethyl)-3-methoxy-4-(4-(3,4,5-trifluorophenyl)-1H-1,2,3-triazol-1-yl)tetrahydro-2H-pyran-2-carboxamide]	6.87	7.85
CO[C@@H]1[C@@H](n2cc(-c3cc(F)c(F)c(F)c3)nn2)[C@@H](O)[C@@H](CO)O[C@H]1C(=O)N(c1cc2sc(C)nc2cc1C)[C@H]1CCCC[C@@H]1O [Example 106, (2R,3R,4S,5R,6R)-N-(2,5-dimethylbenzo[d]thiazol-6-yl)-5-hydroxy-N-((1S,2S)-2-hydroxycyclohexyl)-6-(hydroxymethyl)-3-methoxy-4-(4-(3,4,5-trifluorophenyl)-1H-1,2,3-triazol-1-yl)tetrahydro-2H-pyran-2-carboxamide]	6.84	7.25
CO[C@@H]1[C@@H](n2cc(-c3cc(F)c(F)c(F)c3)nn2)[C@@H](O)[C@@H](CO)O[C@H]1C(=O)N(c1ccc2nc(Cl)sc2c1)[C@H]1CCCC[C@@H]1O [Example 107, (2R,3R,4S,5R,6R)-N-(2-chlorobenzo[d]thiazol-6-yl)-5-hydroxy-N-((1S,2S)-2-hydroxycyclohexyl)-6-(hydroxymethyl)-3-methoxy-4-(4-(3,4,5-trifluorophenyl)-1H-1,2,3-triazol-1-yl)tetrahydro-2H-pyran-2-carboxamide]	5.92	6.50

The next lines start with the values.

pIC50 (human Gal-1 (hGal-1))	pIC50 (human Gal-3 (hGal-3))	SMILES
7.12	8.00	CO[C@@H]1[C@@H](n2cc(-c3cc(F)c(F)c(F)c3)nn2)[C@@H](O)[C@@H](CO)O[C@H]1C(=O)N(c1cc(Cl)ccc1C)[C@H]1CCCC[C@@H]1O [Example 89, (2R,3R,4S,5R,6R)-N-(5-chloro-2-methylphenyl)-5-hydroxy-N-((1S,2S)-2-hydroxycyclohexyl)-6-(hydroxymethyl)-3-methoxy-4-(4-(3,4,5-trifluorophenyl)-1H-1,2,3-triazol-1-yl)tetrahydro-2H-pyran-2-carboxamide]
6.45	7.59	CO[C@@H]1[C@@H](n2cc(-c3cc(F)c(F)c(F)c3)nn2)[C@@H](O)[C@@H](CO)O[C@H]1C(=O)N(c1ccc(F)c(Cl)c1)[C@H]1CCCC[C@@H]1O [Example 90, (2R,3R,4S,5R,6R)-N-(3-chloro-4-fluorophenyl)-5-hydroxy-N-((1S,2S)-2-hydroxycyclohexyl)-6-(hydroxymethyl)-3-methoxy-4-(4-(3,4,5-trifluorophenyl)-1H-1,2,3-triazol-1-yl)tetrahydro-2H-pyran-2-carboxamide]
6.40	7.80	CO[C@@H]1[C@@H](n2cc(-c3cc(F)c(F)c(F)c3)nn2)[C@@H](O)[C@@H](CO)O[C@H]1C(=O)N(c1cc(Cl)cc(C(F)(F)F)c1)[C@H]1CCCC[C@@H]1O [Example 95, (2R,3R,4S,5R,6R)-N-(3-chloro-5-(trifluoromethyl)phenyl)-5-hydroxy-N-((1S,2S)-2-hydroxycyclohexyl)-6-(hydroxymethyl)-3-methoxy-4-(4-(3,4,5-trifluorophenyl)-1H-1,2,3-triazol-1-yl)tetrahydro-2H-pyran-2-carboxamide]
6.39	7.85	CO[C@@H]1[C@@H](n2cc(-c3cc(F)c(F)c(F)c3)nn2)[C@@H](O)[C@@H](CO)O[C@H]1C(=O)N(c1cc(Cl)cc(Br)c1)[C@H]1CCCC[C@@H]1O [Example 96, (2R,3R,4S,5R,6R)-N-(3-bromo-5-chlorophenyl)-5-hydroxy-N-((1S,2S)-2-hydroxycyclohexyl)-6-(hydroxymethyl)-3-methoxy-4-(4-(3,4,5-trifluorophenyl)-1H-1,2,3-triazol-1-yl)tetrahydro-2H-pyran-2-carboxamide]
6.58	7.89	CO[C@@H]1[C@@H](n2cc(-c3cc(F)c(F)c(F)c3)nn2)[C@@H](O)[C@@H](CO)O[C@H]1C(=O)N(c1cc(Br)cc(Br)c1)[C@H]1CCCC[C@@H]1O [Example 97, (2R,3R,4S,5R,6R)-N-(3,5-dibromophenyl)-5-hydroxy-N-((1S,2S)-2-hydroxycyclohexyl)-6-(hydroxymethyl)-3-methoxy-4-(4-(3,4,5-trifluorophenyl)-1H-1,2,3-triazol-1-yl)tetrahydro-2H-pyran-2-carboxamide]
6.42	7.49	CO[C@@H]1[C@@H](n2cc(-c3cc(F)c(F)c(F)c3)nn2)[C@@H](O)[C@@H](CO)O[C@H]1C(=O)N(c1ccc(Cl)c(Br)c1)[C@H]1CCCC[C@@H]1O [Example 99, (2R,3R,4S,5R,6R)-N-(3-bromo-4-chlorophenyl)-5-hydroxy-N-((1S,2S)-2-hydroxycyclohexyl)-6-(hydroxymethyl)-3-methoxy-4-(4-(3,4,5-trifluorophenyl)-1H-1,2,3-triazol-1-yl)tetrahydro-2H-pyran-2-carboxamide]
6.10	7.44	COc1cccc(N(C(=O)[C@@H]2O[C@H](CO)[C@H](O)[C@H](n3cc(-c4cc(F)c(F)c(F)c4)nn3)[C@H]2OC)[C@H]2CCCC[C@@H]2O)c1 [Example 101, (2R,3R,4S,5R,6R)-5-hydroxy-N-((1S,2S)-2-hydroxycyclohexyl)-6-(hydroxymethyl)-3-methoxy-N-(3-methoxyphenyl)-4-(4-(3,4,5-trifluorophenyl)-1H-1,2,3-triazol-1-yl)tetrahydro-2H-pyran-2-carboxamide]
5.93	7.72	COc1cc(Cl)cc(N(C(=O)[C@@H]2O[C@H](CO)[C@H](O)[C@H](n3cc(-c4cc(F)c(F)c(F)c4)nn3)[C@H]2OC)[C@H]2CCCC[C@@H]2O)c1 [Example 104, (2R,3R,4S,5R,6R)-N-(3-chloro-5-methoxyphenyl)-5-hydroxy-N-((1S,2S)-2-hydroxycyclohexyl)-6-(hydroxymethyl)-3-methoxy-4-(4-(3,4,5-trifluorophenyl)-1H-1,2,3-triazol-1-yl)tetrahydro-2H-pyran-2-carboxamide]
